In PubChem BioAssay (NCI):
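Method: 48-hour compound exposure of cells in 96-well plates, five concentrations, linear interpolation of endpoints. Abbreviation: GI50, concentration required for 50% inhibition of growth. The concentration for full growth arrest is given as TGI.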

Assays:
Assay in all cases: DTP human tumour cell line panel, 48 h
OVCAR-5 ovarian = test system: OVCAR-5 ovarian
SN12C renal = test system: SN12C renal
NCI-H23 lung = test system: NCI-H23 lung
LOX IMVI melanoma = test system: LOX IMVI melanoma
SK-OV-3 ovarian = test system: SK-OV-3 ovarian
CAKI-1 renal = test system: CAKI-1 renal
HOP-62 NSCLC = test system: HOP-62 NSCLC
IGROV1 ovarian = test system: IGROV1 ovarian
RXF 393 renal = test system: RXF 393 renal
HCC-2998 colon = test system: HCC-2998 colon

With `CC1(C)CCc2cc3c(cc2O1)OC(C)(C)CC3=O` the TGI (OVCAR-5 ovarian) was over 100 µM, the TGI (SN12C renal) was over 100 µM and the TGI (NCI-H23 lung) was over 100 µM. For the same molecule, the TGI (LOX IMVI melanoma) was over 100 µM, the TGI (SK-OV-3 ovarian) was over 100 µM and the TGI (CAKI-1 renal) was over 100 µM. The TGI (HOP-62 NSCLC) was over 100 µM and the TGI (IGROV1 ovarian) was over 100 µM.

Molecule `CN(C)C=O.CN(C)C=O.CN1C(C(=O)Nc2ccccn2)=C([O-])c2ccccc2S1(=O)=O.CN1C(C(=O)Nc2ccccn2)=C([O-])c2ccccc2S1(=O)=O.[Cu+2]` has a TGI (OVCAR-5 ovarian) of over 100 µM, a TGI (RXF 393 renal) of 61.7 µM and a GI50 (HCC-2998 colon) of over 100 µM. It also gave a TGI (HCC-2998 colon) of over 100 µM, a TGI (SN12C renal) of over 100 µM and a TGI (NCI-H23 lung) of 57 µM. For the same molecule, the TGI (LOX IMVI melanoma) was over 100 µM, the TGI (SK-OV-3 ovarian) was 45.8 µM and the TGI (HOP-62 NSCLC) was 78.8 µM. For the same molecule, the GI50 (IGROV1 ovarian) was 36.3 µM and the TGI (IGROV1 ovarian) was over 100 µM.

In the case of `CCCCCCCCCCCCCCC(C(=O)[O-])[n+]1ccccc1` (centres undefined), the TGI (OVCAR-5 ovarian) was over 100 µM, the TGI (RXF 393 renal) was 74.7 µM and the TGI (HCC-2998 colon) was over 100 µM. It also gave a TGI (SN12C renal) of over 100 µM, a TGI (NCI-H23 lung) of over 100 µM and a TGI (LOX IMVI melanoma) of over 100 µM. It also gave a TGI (SK-OV-3 ovarian) of over 100 µM, a TGI (CAKI-1 renal) of over 100 µM and a TGI (HOP-62 NSCLC) of over 100 µM. The TGI (IGROV1 ovarian) was over 100 µM.

Molecule `COc1cc2c(cc1OCCCOc1cc3c(cc1OC)C(=O)N1CC(F)(F)C[C@H]1C=N3)N=C[C@@H]1CC(F)(F)CN1C2=O` has a GI50 (OVCAR-5 ovarian) of 1.74 µM, a TGI (OVCAR-5 ovarian) of 8.99 µM and a GI50 (RXF 393 renal) of 1.38 µM. For the same molecule, the TGI (RXF 393 renal) was 2.87 µM, the GI50 (HCC-2998 colon) was 1.37 µM and the TGI (HCC-2998 colon) was 3.45 µM. The GI50 (SN12C renal) was 0.269 µM, the TGI (SN12C renal) was over 37.2 µM and the GI50 (NCI-H23 lung) was 0.492 µM. The TGI (NCI-H23 lung) was 9.86 µM, the GI50 (LOX IMVI melanoma) was 0.256 µM and the TGI (LOX IMVI melanoma) was 2.65 µM. The GI50 (SK-OV-3 ovarian) was 1.02 µM, the TGI (SK-OV-3 ovarian) was over 30.3 µM and the GI50 (CAKI-1 renal) was 0.185 µM. For the same molecule, the TGI (CAKI-1 renal) was 0.708 µM, the GI50 (HOP-62 NSCLC) was 0.206 µM and the TGI (HOP-62 NSCLC) was 2.59 µM. It also gave a GI50 (IGROV1 ovarian) of 0.116 µM and a TGI (IGROV1 ovarian) of 2.33 µM.

Work on `COC(=O)C12OCC34C(CC5C(C)C6=CC(=O)OC6=CC5(C)C3C(O)C1O)OC(=O)C(OC(C)=O)C24` (centres undefined) yielded a TGI (OVCAR-5 ovarian) of 44.2 µM, a TGI (RXF 393 renal) of 29 µM and a TGI (HCC-2998 colon) of 30 µM. For the same molecule, the TGI (SN12C renal) was 39.9 µM, the TGI (NCI-H23 lung) was 32.5 µM and the TGI (LOX IMVI melanoma) was 37 µM. For the same molecule, the TGI (SK-OV-3 ovarian) was 79.4 µM, the TGI (CAKI-1 renal) was 25.2 µM and the TGI (HOP-62 NSCLC) was 53.2 µM. It also gave a TGI (IGROV1 ovarian) of 65.1 µM.

With `Cc1cccc(NC(N)=S)c1` the TGI (OVCAR-5 ovarian) was over 100 µM, the TGI (RXF 393 renal) was over 100 µM and the TGI (HCC-2998 colon) was over 100 µM. The TGI (SN12C renal) was over 100 µM, the TGI (NCI-H23 lung) was over 100 µM and the TGI (LOX IMVI melanoma) was over 100 µM. It also gave a TGI (SK-OV-3 ovarian) of over 100 µM and a TGI (HOP-62 NSCLC) of over 100 µM.

`NC(CCCNc1ccc(O)cc1)C(=O)O` (centres undefined) gave a TGI (OVCAR-5 ovarian) of over 100 µM, a TGI (RXF 393 renal) of 63.6 µM and a TGI (HCC-2998 colon) of over 100 µM. The TGI (SN12C renal) was over 70.6 µM, the TGI (NCI-H23 lung) was over 100 µM and the TGI (LOX IMVI melanoma) was 33.3 µM. The TGI (SK-OV-3 ovarian) was over 100 µM, the TGI (CAKI-1 renal) was over 100 µM and the TGI (HOP-62 NSCLC) was over 100 µM. The TGI (IGROV1 ovarian) was 61.5 µM.

For `NS(=O)(=O)c1ccc(C(=O)O)cc1`, the TGI (OVCAR-5 ovarian) was over 100 µM, the TGI (RXF 393 renal) was over 100 µM and the TGI (SN12C renal) was over 100 µM. The TGI (NCI-H23 lung) was over 100 µM, the TGI (LOX IMVI melanoma) was over 100 µM and the TGI (SK-OV-3 ovarian) was over 100 µM. For the same molecule, the TGI (CAKI-1 renal) was over 100 µM, the TGI (HOP-62 NSCLC) was over 100 µM and the TGI (IGROV1 ovarian) was over 100 µM.

With `COc1ccc2c(c1)C(=O)c1c-2n(CCCCl)c(=O)c2cc([N+](=O)[O-])ccc12` the GI50 (OVCAR-5 ovarian) was 1.26 µM, the TGI (OVCAR-5 ovarian) was over 26.4 µM and the GI50 (RXF 393 renal) was 1.58 µM. It also gave a TGI (RXF 393 renal) of over 100 µM, a GI50 (HCC-2998 colon) of 0.996 µM and a TGI (HCC-2998 colon) of over 28.6 µM. It also gave a TGI (SN12C renal) of over 20.3 µM, a GI50 (NCI-H23 lung) of 0.107 µM and a GI50 (LOX IMVI melanoma) of under 0.01 µM. For the same molecule, the TGI (LOX IMVI melanoma) was 0.111 µM, the GI50 (SK-OV-3 ovarian) was 0.569 µM and the TGI (SK-OV-3 ovarian) was over 100 µM. It also gave a GI50 (CAKI-1 renal) of 0.242 µM, a TGI (CAKI-1 renal) of 0.959 µM and a GI50 (IGROV1 ovarian) of 0.0585 µM. The TGI (IGROV1 ovarian) was 6.57 µM.

`Nc1ccc([As](=O)(O)O)cc1` gave a TGI (OVCAR-5 ovarian) of over 100 µM, a TGI (RXF 393 renal) of over 100 µM and a TGI (HCC-2998 colon) of over 100 µM. It also gave a TGI (SN12C renal) of over 100 µM, a TGI (NCI-H23 lung) of over 100 µM and a TGI (LOX IMVI melanoma) of over 100 µM. The TGI (SK-OV-3 ovarian) was over 100 µM, the TGI (CAKI-1 renal) was over 100 µM and the TGI (HOP-62 NSCLC) was over 100 µM. It also gave a TGI (IGROV1 ovarian) of over 100 µM.

`Cn1ncc2c(=O)[nH]c(-c3ccccc3)nc21` gave a TGI (OVCAR-5 ovarian) of over 100 µM, a TGI (RXF 393 renal) of over 100 µM and a TGI (HCC-2998 colon) of over 100 µM. The TGI (SN12C renal) was over 100 µM, the TGI (NCI-H23 lung) was over 100 µM and the TGI (LOX IMVI melanoma) was over 100 µM. For the same molecule, the TGI (SK-OV-3 ovarian) was over 100 µM, the TGI (CAKI-1 renal) was over 100 µM and the TGI (IGROV1 ovarian) was over 100 µM.

Molecule `CC(C)(c1ccccc1)c1ccc(Oc2ccc3c(c2)-c2nc-3nc3[nH]c(nc4nc(nc5[nH]c(n2)c2ccc(Oc6ccc(C(C)(C)c7ccccc7)cc6)cc52)-c2cc(Oc5ccc(C(C)(C)c6ccccc6)cc5)ccc2-4)c2ccc(Oc4ccc(C(C)(C)c5ccccc5)cc4)cc32)cc1` has a TGI (OVCAR-5 ovarian) of over 100 µM, a TGI (RXF 393 renal) of 97 µM and a TGI (HCC-2998 colon) of over 100 µM. The TGI (NCI-H23 lung) was over 100 µM, the TGI (LOX IMVI melanoma) was over 100 µM and the TGI (SK-OV-3 ovarian) was over 100 µM. For the same molecule, the TGI (HOP-62 NSCLC) was over 100 µM and the TGI (IGROV1 ovarian) was over 100 µM.

Work on `O=C1CC(c2ccccc2)NCCCCN2CC(CN1)C(C(O)c1ccccc1)C2=O` (centres undefined) yielded a TGI (OVCAR-5 ovarian) of over 100 µM, a TGI (RXF 393 renal) of over 100 µM and a TGI (HCC-2998 colon) of over 100 µM. It also gave a TGI (SN12C renal) of over 100 µM, a TGI (NCI-H23 lung) of over 100 µM and a TGI (LOX IMVI melanoma) of over 100 µM. For the same molecule, the TGI (SK-OV-3 ovarian) was over 100 µM, the TGI (CAKI-1 renal) was over 100 µM and the TGI (HOP-62 NSCLC) was over 100 µM. The TGI (IGROV1 ovarian) was over 100 µM.

`O=C(O)\C=C/C=C/C=C/C=C/C(=O)O` was tested, and the TGI (OVCAR-5 ovarian) was over 100 µM, the TGI (RXF 393 renal) was over 100 µM and the TGI (HCC-2998 colon) was over 100 µM. For the same molecule, the TGI (SN12C renal) was over 100 µM, the TGI (NCI-H23 lung) was over 100 µM and the TGI (LOX IMVI melanoma) was over 100 µM. The TGI (SK-OV-3 ovarian) was over 100 µM, the TGI (CAKI-1 renal) was over 100 µM and the TGI (HOP-62 NSCLC) was over 100 µM. For the same molecule, the TGI (IGROV1 ovarian) was over 100 µM.

In the case of `CC1(C)CCCC2(C)C3=C(CCC12)C(=O)OC3` (centres undefined), the TGI (OVCAR-5 ovarian) was over 100 µM, the TGI (RXF 393 renal) was over 100 µM and the TGI (HCC-2998 colon) was over 100 µM. For the same molecule, the TGI (SN12C renal) was over 100 µM, the TGI (NCI-H23 lung) was over 100 µM and the TGI (LOX IMVI melanoma) was over 100 µM. The TGI (SK-OV-3 ovarian) was over 100 µM, the TGI (CAKI-1 renal) was over 100 µM and the TGI (HOP-62 NSCLC) was over 100 µM. The TGI (IGROV1 ovarian) was over 100 µM.
